Assay results: patent US11993584B2, “Solid forms of an azolopyrimidine compound” (ARCUS BIOSCIENCES, INC., priority 2018, dated 2024)
Each block holds one molecule with its values, some of them ahead of it.

How the values were obtained:
A2AR = A2AR (Homo sapiens, UniProt P29274); conditions: antagonist; has been reported (U.S. Ser. No. 15/875,106, PCT/US18/14352); cited from earlier work
A2BR = biological target: T1, A2BR (Homo sapiens, UniProt P29275); conditions: antagonist; has been reported (U.S. Ser. No. 15/875,106, PCT/US18/14352); cited from earlier work
T1 sequence (P29275 1-332): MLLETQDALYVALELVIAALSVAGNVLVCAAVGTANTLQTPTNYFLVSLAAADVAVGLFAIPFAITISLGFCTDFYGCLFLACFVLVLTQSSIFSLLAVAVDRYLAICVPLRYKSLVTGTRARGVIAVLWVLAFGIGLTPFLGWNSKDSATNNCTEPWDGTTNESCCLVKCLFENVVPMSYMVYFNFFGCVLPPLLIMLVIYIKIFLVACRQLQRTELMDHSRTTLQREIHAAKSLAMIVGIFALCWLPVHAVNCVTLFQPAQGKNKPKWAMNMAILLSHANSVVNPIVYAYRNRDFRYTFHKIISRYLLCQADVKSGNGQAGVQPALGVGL

[1] = Solid-state stability of Form I under stress storage, analysis by HPLC and XRPD; type: physicochemical
Protocol: XRPD analysis was carried out on a PANalytical X'pert pro, scanning the samples between 3 and […] 2θ. The material was gently ground to release any agglomerates and loaded onto a multi-well plate with Kapton or Mylar polymer film to support the sample. The multi-well plate was then placed into the diffractometer and analyzed using Cu K radiation (α1λ=1.54060 Å; α2=1.54443 Å; β=1.39225 Å; α1: α2 ratio=0.5) running in transmission mode (step size 0.0130° 2θ) using 40 kV/40 mA generator settings.
• Instrument: Agilient 1100 • Column: Zorbax Eclipse Plus C18 150 mm×3.0 mm, 3.5 μm particle size • Column Temperature: 35° C. • Autosampler Temperature: Ambient • UV wavelength: 228 nm • Injection Volume: 3 μL • Flow Rate: 1 mL/min • Mobile Phase A: Water (0.1% formic acid in 95:5 water:ACN) • Mobile Phase B: ACN (0.1% formic acid) • Gradient program: […]
Vials containing a quantity of Form I of Compound I were subjected to a temperature of 40° C. at 75% relative humidity (RH) for one week. […] Additionally, vials containing a quantity of the crystalline material were subjected to a temperature of 80° C. in a closed vial for one week.

[2] = Dynamic vapor sorption (DVS) hygroscopicity; type: physicochemical
Protocol: Approximately 10 mg of sample was placed into a mesh vapor sorption balance pan and loaded into a DVS-1, DVS Intrinsic or DVS Advantage dynamic vapor sorption balance by Surface Measurement Systems. The sample was subjected to a ramping profile from 40-90% relative humidity (RH) at 10% increments, maintaining the sample at each step until a stable weight had been achieved (dm/dt 0.004%, minimum step length 30 min, maximum step length 500 min) at 25° C. After completion of the sorption cycle, the sample was dried using the same procedure to 0% RH and then a second sorption cycle back to 40% RH. Two cycles were performed. The weight change during the sorption/desorption cycles were plotted, allowing for the hygroscopic nature of the sample to be determined. XRPD analysis was then carried out on any solid retained.
A quantity of Compound I Form I was analyzed by dynamic vapor sorption (DVS). The sample was subjected to a ramping profile from 40-90% RH at 10% increments, maintaining the sample at each step until a stable weight had been achieved at 25° C. After completion of the sorption cycle, the sample was dried using the same procedure to 0% RH and then a second sorption cycle back to 40% RH. Two cycles were performed. The weight change during the sorption/desorption cycles were plotted, allowing for the hygroscopic nature of the sample to be determined.

[3] = Competitive 1:1 slurry experiments of the two forms; type: physicochemical; conditions: 1:1 slurry of Form I and Form III, variety of solvents
[4] = Qualitative dissolution of amorphous Compound I in solvents; type: physicochemical; conditions: 40 mg sample
Protocol: Amorphous Compound I was produced by dissolving Compound I in 1,4-dioxane and subsequent lyophilization. The amorphous solid form was confirmed by the lack of indicative peaks by XRPD. To the amorphous Compound I, solvent was added to the 12×40 mg samples to prepare slurries for thermal cycling. The material was readily soluble in many of the 12 solvents and therefore, several of the samples were thermally cycled as saturated solutions.

Sequence of A2AR (P29274 whole entry): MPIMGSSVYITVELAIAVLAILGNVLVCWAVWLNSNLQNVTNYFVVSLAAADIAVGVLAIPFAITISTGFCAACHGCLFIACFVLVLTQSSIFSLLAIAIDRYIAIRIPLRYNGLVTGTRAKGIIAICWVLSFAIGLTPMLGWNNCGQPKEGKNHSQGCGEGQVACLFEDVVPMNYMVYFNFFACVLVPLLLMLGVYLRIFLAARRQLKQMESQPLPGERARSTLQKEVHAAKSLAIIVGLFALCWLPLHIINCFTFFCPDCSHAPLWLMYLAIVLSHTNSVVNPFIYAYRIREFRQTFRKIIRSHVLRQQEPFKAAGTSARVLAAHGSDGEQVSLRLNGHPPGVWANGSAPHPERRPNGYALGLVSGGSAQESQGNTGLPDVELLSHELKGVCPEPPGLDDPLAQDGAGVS

Compound: Cc1c(C#N)cccc1-c1cc(-c2cn(Cc3cccc(C(C)(C)O)n3)nn2)nc(N)n1 [Compound I, 3-[2-amino-6-(1-{[6-(2-hydroxypropan-2-yl)pyridin-2-yl]methyl}-1H-1,2,3-triazol-4-yl)pyrimidin-4-yl]-2-methylbenzonitrile]
potency on A2AR (A2AR): less than 10 nM
potency on A2BR (A2BR): less than 10 nM

hygroscopic nature ([2]; DVS, 25° C.): slightly hygroscopic
XRPD analysis of resultant solid after DVS ([2]; after two sorption/desorption cycles): no change in morphology observed
maximum absorption of water (DVS) ([2]; at 90% relative humidity, 25° C., 0-90% RH range, reversible): 1.1%
hysteresis upon cycling (DVS) ([2]; two cycles, 0-90% RH): No hysteresis was observed
Compound: Cc1c(C#N)cccc1-c1cc(-c2cn(Cc3cccc(C(C)(C)O)n3)nn2)nc(N)n1 [Form I of Compound I, 3-[2-amino-6-(1-{[6-(2-hydroxypropan-2-yl)pyridin-2-yl]methyl}-1H-1,2,3-triazol-4-yl)pyrimidin-4-yl]-2-methylbenzonitrile]
stability (decomposition, morphology change) by HPLC and XRPD ([1]; 40° C. at 75% relative humidity (RH) for one week): stable with no decomposition or morphology change observed
stability (decomposition, morphology change) by HPLC and XRPD ([1]; 80° C. in a closed vial for one week): stable with no decomposition or change in morphology observed

form conversion in competitive slurry [3]: converted to Form I
Compound: Cc1c(C#N)cccc1-c1cc(-c2cn(Cc3cccc(C(C)(C)O)n3)nn2)nc(N)n1 [Form III, 3-[2-amino-6-(1-{[6-(2-hydroxypropan-2-yl)pyridin-2-yl]methyl}-1H-1,2,3-triazol-4-yl)pyrimidin-4-yl]-2-methylbenzonitrile]

Slurry or Solution ([4]; 1,4-Dioxane, 200 μL): Solution
Slurry or Solution ([4]; 2-Ethoxyethanol, 200 μL): solution
Slurry or Solution ([4]; 25% Acetone/75% water, 200 μL): Solution
Slurry or Solution ([4]; 25% MeCN/75% water, 300 μL): Slurry
Slurry or Solution ([4]; Isopropanol, 400 μL): Slurry
Slurry or Solution ([4]; Isopropyl acetate, 200 μL): Solution
Slurry or Solution ([4]; Methanol, 200 μL): Solution
Slurry or Solution ([4]; THF, 200 μL): Solution
Slurry or Solution ([4]; Toluene, 700 μL): Slurry
Slurry or Solution ([4]; acetonitrile, 400 μL): Slurry
Slurry or Solution ([4]; dichloromethane, 200 μL): Solution
Slurry or Solution ([4]; water, 700 μL): slurry
Compound: Cc1c(C#N)cccc1-c1cc(-c2cn(Cc3cccc(C(C)(C)O)n3)nn2)nc(N)n1 [amorphous Compound I, 3-[2-amino-6-(1-{[6-(2-hydroxypropan-2-yl)pyridin-2-yl]methyl}-1H-1,2,3-triazol-4-yl)pyrimidin-4-yl]-2-methylbenzonitrile]
